Measurements from BindingDB's records for patent US20240343720 (Xizang Haisco Pharmaceutical, 2024).

Target: AP2-associated protein kinase 1 (Homo sapiens, UniProt Q2M2I8)
Assay: In Vitro AAK1 Enzyme Activity Assay
Protocol: Compound stock solution (concentration: 10 mM, dissolved in DMSO) was diluted with DMSO to 0.2 mM and then diluted with DMSO in 5-fold gradient to obtain compound solutions with 10 concentrations. Subsequently, the compound solutions with different concentrations were diluted 50-fold in 1×kinase reaction buffer (containing 40 mM Tris, 20 mM MgCl2, 0.1% BSA and 0.5 mM DTT) for later use. AAK1 (Signalchem, Cat #A01-11G-10) was diluted with 1×kinase reaction buffer to 2-fold the final concentration (final concentrations: 30 nM and 28 nM). AAK1 was added to a 384-well white plate at 2 μL/well, and the compounds were then added at 1 μL/well. The plate was sealed with a plate-sealing film, centrifuged at 1000 rpm for 30 seconds and then placed at room temperature for 10 minutes. A mixed solution of ATP (Promega, Cat #V914B) and substrate Micro2 (GenScript, Cat #PE0890) was formulated at 4-fold the final concentration (for AAK1, the corresponding final concentrations of ATP: 15 μM and 5 μM, and the corresponding final concentration of Micro2: 0.1 mg/mL). To the reaction plate was added the mixed solution of ATP and the substrate at 1 μL/well.

AP2-associated protein kinase 1, sequence (Q2M2I8 whole entry): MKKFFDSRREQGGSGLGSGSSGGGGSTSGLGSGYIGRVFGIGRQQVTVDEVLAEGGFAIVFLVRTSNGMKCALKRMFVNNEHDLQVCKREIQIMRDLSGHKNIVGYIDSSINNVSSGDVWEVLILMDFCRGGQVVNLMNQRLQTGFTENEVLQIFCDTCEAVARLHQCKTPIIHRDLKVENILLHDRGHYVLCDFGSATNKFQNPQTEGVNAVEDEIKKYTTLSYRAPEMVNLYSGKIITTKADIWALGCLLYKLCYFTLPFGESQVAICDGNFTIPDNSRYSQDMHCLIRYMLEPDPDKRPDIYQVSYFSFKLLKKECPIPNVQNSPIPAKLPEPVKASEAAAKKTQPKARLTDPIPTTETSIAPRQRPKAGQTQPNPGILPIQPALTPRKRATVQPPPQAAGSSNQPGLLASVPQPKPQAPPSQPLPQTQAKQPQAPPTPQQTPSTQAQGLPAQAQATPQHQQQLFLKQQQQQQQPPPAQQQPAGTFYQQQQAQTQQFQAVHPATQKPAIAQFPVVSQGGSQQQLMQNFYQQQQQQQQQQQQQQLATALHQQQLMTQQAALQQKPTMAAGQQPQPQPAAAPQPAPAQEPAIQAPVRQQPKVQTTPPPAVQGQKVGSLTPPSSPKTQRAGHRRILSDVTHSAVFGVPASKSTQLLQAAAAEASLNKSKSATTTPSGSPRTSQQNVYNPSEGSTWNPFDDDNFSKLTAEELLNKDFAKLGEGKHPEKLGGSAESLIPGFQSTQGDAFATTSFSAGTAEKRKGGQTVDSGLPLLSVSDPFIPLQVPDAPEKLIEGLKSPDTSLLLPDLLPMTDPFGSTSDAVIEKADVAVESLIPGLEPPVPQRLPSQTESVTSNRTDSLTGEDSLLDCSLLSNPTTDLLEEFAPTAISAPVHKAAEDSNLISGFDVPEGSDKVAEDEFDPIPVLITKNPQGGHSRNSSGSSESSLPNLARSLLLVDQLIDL

IC50: 5.74 nM
Structure (SMILES): C=C(C)C[C@](C)(N)COc1cnc(-c2ccnc(NC(=O)OC)c2)cc1C(F)F [US20240343720, Compound 11]
